Experimental findings from patent US20030225007A1, “Sulfonamide derivatives of 3-substituted imidazol[1,2-d]-1,2,4-thiadiazoles and 3-substituted-[1,2,4] thiadiazolo[4,5-a] benzimidazole as inhibitors of fibrin cross-linking and transglutaminases” (Apotex Inc., priority 2002, published 2003) are described below.

Where two headings read alike, the source gives them in different places.

For series [1], the target named is T1, Factor XIIIa (activated FXIII) (Homo sapiens, UniProt P00488).
T1 construct: purchased Enzyme Research Laboratories, Ltd
T1 sequence (P00488 39-732 limits assumed): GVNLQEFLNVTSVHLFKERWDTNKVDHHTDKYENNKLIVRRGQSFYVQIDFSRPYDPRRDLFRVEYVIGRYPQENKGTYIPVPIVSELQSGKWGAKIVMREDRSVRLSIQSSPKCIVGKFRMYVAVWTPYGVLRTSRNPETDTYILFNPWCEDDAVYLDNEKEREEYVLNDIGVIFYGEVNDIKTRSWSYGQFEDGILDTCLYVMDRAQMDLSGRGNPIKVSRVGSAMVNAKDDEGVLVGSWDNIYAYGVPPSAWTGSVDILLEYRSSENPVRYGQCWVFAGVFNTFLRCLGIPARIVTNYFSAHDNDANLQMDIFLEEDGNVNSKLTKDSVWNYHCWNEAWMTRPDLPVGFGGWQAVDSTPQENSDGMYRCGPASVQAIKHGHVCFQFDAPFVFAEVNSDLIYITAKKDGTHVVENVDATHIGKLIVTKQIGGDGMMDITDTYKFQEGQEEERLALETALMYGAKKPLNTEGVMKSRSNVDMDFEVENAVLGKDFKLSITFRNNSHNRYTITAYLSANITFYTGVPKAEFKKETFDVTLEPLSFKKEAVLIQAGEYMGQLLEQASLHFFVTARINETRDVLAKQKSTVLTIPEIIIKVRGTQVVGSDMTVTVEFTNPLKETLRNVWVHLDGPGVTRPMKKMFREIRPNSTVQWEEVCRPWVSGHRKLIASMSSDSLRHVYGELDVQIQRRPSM
Put plainly: Inactivation of purified Factor XIIIa (monodansylcadaverine incorporation into dimethylcasein, fluorescence). The format is biochemical. Here is the method: FXIII (0.5 mg/mL, Enzyme Research Laboratories, Ltd.) in 50 mM Tris-HCl pH 7.5 containing 100 mM NaCl, 40 mM CaCl2, 1 mM EDTA and 0.1% poly(ethylene glycol) (app. MW=8000) was activated by incubation with 10 NIH units/mL of human thrombin (Calbiochem) at 37° C. for 20 min. Thrombin was quenched with 20 NIH units/mL of hirudin from Leech (Sigma).
Inhibitor solution in DMSO (14 μL) was added to 120 μL of 250 mM Tris-Cl pH 7.5 containing 40 mM CaCl2 and 1 mM EDTA and the solution was incubated at 37° C. for two minutes. Activated FXIII (5 μL, 0.5 mg/mL) was added and the mixture was incubated at 37° C. for 5 min.
An assay mixture composed of 50 mM Tris-Cl pH 8.0, 10 mM CaCl2, 1 mM EDTA, 0.1% poly(ethylene glycol) (app. MW=1000) and 20 μM monodansylcadaverine was prepared in a spectrofluorometric cell in a final volume of 2880 μL. Dimethylcasein (8 μL, 1% in 50 mM sodium phosphate pH 7.5) was added and the solution was incubated at 37° C. for a few minutes. To assay the residual enzyme activity, 120 μL of the solution containing the enzyme and the inhibitor was transferred to the assay mixture. The covalent incorporation of monodansylcadaverine into casein was monitored by an increase in fluorescence at λexc=360 nm and λem=500 nm as previously described (Curtis, C. G.; Lorand, L. Methods Enzymol. 1976, 45, 177-191). To determine uninhibited enzyme activity, DMSO was used in place of inhibitor solution in the above assay. IC50 were determined by plotting the percent of remaining enzyme activity against logarithm of inhibitor concentration. IC50 is defined here as an inhibitor concentration resulting in 50% enzyme inactivation after 5-min incubation of the enzyme with the inhibitor in the absence of the substrate. Second order rate constants for inactivation were determined using method described by Kitz and Wilson (Kitz, R.; Wilson, I. J. Biol. Chem. 1962, 237, 3245).

Series [2] deals with T2, endogenous Factor XIII in plasma (Plasma FXIIIa) (Homo sapiens, UniProt P00488).
T2 construct: from tissue; host or cells: citrated plasma (desensitized by heating)
T2 sequence (P00488 39-732 limits assumed): T1 sequence (P00488 39-732 limits assumed)
Put plainly: Inactivation of endogenous Factor XIII in plasma. Format: biochemical. Conditions: citrated plasma, thrombin-activated, 5 min at 37° C. Here is the method: Citrated plasma (0.235 mL) was “desensitized” by heating with ethylene glycol monomethyl ether (0.235 mL, 20% solution in water) in a glass test tube at 56° C. for 4 min., as described by Lorand (Lorand, L.; Lockridge, O. M.; Campbell, L. K.; Myhrman, R.; Bruner-Lorand, J. Anal.Biochem. 1971, 44, 221-231). After cooling to 37° C., calcium chloride (20 μL, 0.4 M in 50 mM Tris-HCl pH 7.5) and inhibitor solution in 50% glycerol (59 μL) were added. Bovine thrombin (30 NIH units in 118 μL of 50 mM Tris-HCl pH 7.5 containing 20 mM CaCl2) was added and the mixture was incubated at 37° C. for 5 min.
An assay mixture composed of 0.1 M sodium borate, pH 9.0, 0.3% ethylene glycol monomethyl ether, 32 μM monodansylcadaverine, 10 mM CaCl2 and 0.08% dimethyl casein in a final volume of 1.263 mL was prepared in a spectrofluorometric cell and incubated at 37° C. for a few minutes. To assay the residual enzyme activity, 567 μL of the plasma solution was transferred to the assay mixture. The covalent incorporation of monodansylcadaverine into casein was monitored by an increase in fluorescence at λex=360 nm and λem=500 nm, as previously described (Curtis, C. G.; Lorand, L. Methods Enzymol. 1976, 45, 177-191). To determine uninhibited enzyme activity, inhibitor solution was replaced by 50% glycerol. IC50 values (inhibitor concentration resulting in 50% enzyme inactivation) were determined by plotting the percent of remaining enzyme activity against logarithm of inhibitor concentration.

Another series has as its target T3, Guinea pig liver TGase (Cavia cutleri, UniProt P08587).
T3 construct: Guinea pig liver TGase; from tissue; host or cells: guinea pig liver
T3 sequence (P08587 2-690): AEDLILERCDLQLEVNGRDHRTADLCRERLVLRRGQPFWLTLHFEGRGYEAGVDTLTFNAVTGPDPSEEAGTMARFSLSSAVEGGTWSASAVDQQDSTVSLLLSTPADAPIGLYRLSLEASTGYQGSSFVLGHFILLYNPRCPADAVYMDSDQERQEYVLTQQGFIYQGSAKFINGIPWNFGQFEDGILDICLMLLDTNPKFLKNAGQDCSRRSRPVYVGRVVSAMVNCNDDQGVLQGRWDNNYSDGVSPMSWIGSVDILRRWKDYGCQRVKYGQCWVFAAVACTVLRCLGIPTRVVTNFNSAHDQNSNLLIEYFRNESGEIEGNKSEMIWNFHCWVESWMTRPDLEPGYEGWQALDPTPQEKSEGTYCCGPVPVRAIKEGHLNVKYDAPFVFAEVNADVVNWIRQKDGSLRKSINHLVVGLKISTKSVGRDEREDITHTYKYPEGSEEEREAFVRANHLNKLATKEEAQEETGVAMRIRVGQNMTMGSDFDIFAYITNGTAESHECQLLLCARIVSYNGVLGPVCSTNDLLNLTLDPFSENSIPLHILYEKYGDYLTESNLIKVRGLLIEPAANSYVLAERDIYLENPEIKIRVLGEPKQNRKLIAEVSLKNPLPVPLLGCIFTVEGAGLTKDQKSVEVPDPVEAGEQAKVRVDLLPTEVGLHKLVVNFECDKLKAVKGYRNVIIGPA
Put plainly: Enzyme selectivity: inactivation of tissue type transglutaminase. The format is biochemical. Here is the method: Enzyme selectivity . Inactivation of tissue type transglutaminase: Inhibitor solution in DMSO (5 μL) was added to 250 mM Tris-Cl pH 7.5 containing 40 mM CaCl2 and 1 mM EDTA in a final volume of 42 μL. Guinea pig liver TGase (3 μL, 2.5 mg/mL in 5 mM Tris-HCl pH 7.5, 2 mM EDTA) was added and the mixture was incubated for 5 min. at 37° C.
An assay mixture composed of 50 mM Tris-Cl, pH 8.0, 10 mM CaCl2, 1 mM EDTA, 0.1% poly(ethylene glycol) (app. MW=1000) and 20 μM monodansylcadaverine was prepared in a spectrofluorimetric cell in a final volume of 2952 μL. Dimethylcasein (8 μL, 1% in 50 mM sodium phosphate pH 7.5) was added and the mixture was incubated at 37° C. for a few minutes. To assay the residual enzyme activity, 40 μL of the solution containing the enzyme and the inhibitor was transferred to the assay mixture. The covalent incorporation of monodansylcadaverine into casein was monitored by an increase in fluorescence at λexc=360 nm and λem=500 nm, as previously described ((Curtis, C. G.; Lorand, L. Methods Enzymol. 1976, 45, 177-191). To determine uninhibited enzyme activity, DMSO was used in place of inhibitor solution in the above assay. IC50 values were determined by plotting the percent of remaining enzyme activity against logarithm of inhibitor concentration. IC50 is defined here as inhibitor concentration resulting in 50% enzyme inactivation after 5-min incubation of the enzyme with the inhibitor in the absence of the substrate. Second order rate constants for inactivation were determined using method described by Kitz and Wilson (Kitz, R.; Wilson, I. J.Biol.Chem. 1962,237, 3245).

Where [3] appears, read: purified activated FXIII, 50% enzyme inactivation after 5-min incubation with inhibitor at 37° C. in the absence of substrate, read-out: FXIIIa (IC50 in μM).
Setting [4] is: values without asterisk, purified FXIIIa, 5-min incubation, read-out: FXIIIa IC50 determined by method in Example 16.

For orientation: melting point means the temperature, or range, at which the solid turns liquid. By IC50 is commonly meant the midpoint of a concentration-inhibition curve. Take `Cc1c(Cl)cccc1S(=O)(=O)NCCCCCCNc1nsc2nccn12` [2-Me-3-Cl-Ph, 3-chloro-N-[6-(imidazo[1,2-d][1,2,4]thiadiazol-3-ylamino)hexyl]-2-methylbenzenesulfonamide]: the melting point lay in the range of 151 to 153 °C. Besides, in series [1] (setting [3]), the IC50 turned out to be 1.3 µM.

Compound `O=[N+]([O-])c1ccccc1S(=O)(=O)NCCCCCCNc1nsc2nccn12` [H / H / 2-NO2-Ph, N-[6-(imidazo[1,2-d][1,2,4]thiadiazol-3-ylamino)hexyl]-2-nitrobenzenesulfonamide] had a melting point of 113.7 to 114.6 °C.

In turn, `Nc1ccccc1S(=O)(=O)NCCCCCCNc1nsc2nccn12` [2-NH2-Ph, 2-amino-N-[6-(imidazo[1,2-d][1,2,4]thiadiazol-3-ylamino)hexyl]benzenesulfonamide] yielded a melting point of 138 to 139 °C. In addition, the IC50 in series [1] (setting [3]) turned out to be 2 µM.

Regarding `Cc1ccc(F)cc1S(=O)(=O)NCCCCCCNc1nsc2nccn12` [2-Me-5-F-Ph, 5-fluoro-N-[6-(imidazo[1,2-d][1,2,4]thiadiazol-3-ylamino)hexyl]-2-methylbenzenesulfonamide], the melting point is 140 to 142 °C. Further, in series [1] (setting [3]), the IC50 turned out to be 10 µM.

For the compound `CS(=O)(=O)NCCCCCCNc1nsc2nccn12` [2 / CH3, N-[6-(Imidazo[1,2-d][1,2,4]thiadiazol-3-ylamino)hexyl]methanesulfonamide], in series [2], inhibition was half-maximal at 38 µM (IC50).

The compound `O=C(O)CCN(CCCCCCNc1nsc2nccn12)S(=O)(=O)c1ccc(F)cc1F` [2 / OH / 2-F-4-F-Ph, N-[(2,4-difluorophenyl)sulfonyl]-N-[6-(imidazo[1,2-d][1,2,4]thiadiazol-3-ylamino)hexyl]-β-alanine] had a melting point of 97 to 100 °C. Further, the IC50 in series [1] (setting [3]) worked out at 5.2 µM.

Compound `CN(C)c1cccc2c(S(=O)(=O)NCCCCCNc3nsc4nccn34)cccc12` [1 / 5-Me2N-1-naphthyl, 5-(Dimethylamino)-N-[5-(imidazo[1,2-d][1,2,4]thiadiazol-3-ylamino)pentyl]naphthalene-1-sulfonamide] had an IC50 in series [2] of 7.1 µM.

Regarding “N-imidazo[1,2-d][1,2,4]thiadiazol-3-yl-N-(6-{[(2-nitrophenyl)sulfonyl]amino}hexyl)glycinamide [H / CH2CONH2 / 2-NO2-Ph]”, the “Second order rate constant for inactivation” value in series [1] (purified Factor XIIIa, method of Kitz and Wilson) is 6700 M⁻¹ s⁻¹. Besides, the IC50 in series [1] (setting [3]) was found to be 0.42 µM; in series [1] (setting [4]), 0.42 µM; at Guinea pig liver TGase (Guinea pig liver TGase; 5-min incubation at 37° C. in the absence of substrate; read-out: TGAse IC50), 32 µM.

As to `O=C(N1CCc2ccc(S(=O)(=O)NCCCCCCNc3nsc4nccn34)cc2C1)C(F)(F)F`, the IC50 in series [1] (setting [4]) stood at 11 µM; on Guinea pig liver TGase (read-out: TGAse IC50; Guinea pig liver TGase; 5-min incubation at 37° C. in the absence of substrate), 17 µM.
